Measured values: patent US12365687B2 (Hoffmann-La Roche Inc., priority 2021, dated 2025)

Columns and labels:
[1] = biological target: α2β2γ1 GABAA receptor subtype (Homo sapiens (Human), UniProt P47869+Q8N1C3); assay: Two-electrode voltage clamp electrophysiology in Xenopus oocytes expressing GABAA receptors (modulation of GABA EC20 current); assay type: cell-based; conditions: for Efficacy (GABA)%: % modulation of GABA EC20 = 100*(Fold increase-1), α2β2γ1 oocytes, compound at approx. 30-fold Ki; for Fold increase h-GABA-A α2β2γ1 oocyte @ 30-fold Ki: Xenopus oocytes expressing α2β2γ1, compound at approx. 30-fold its Ki α2β2γ1, GABA EC20 current
Experimental: Xenopus laevis oocytes at maturation stages V-VI were used for the expression of cloned mRNA encoding GABAA receptor subunits. Oocytes ready for RNA micro-injection were bought from Ecocyte, Castrop-Rauxel, Germany and stored in modified Barth's medium (composition in mM: NaCl 88, KCl 1, NaHCO3 2.4, HEPES 10, MgSO4 0.82, CaNO3 0.33, CaCl2 0.33, pH=7.5) at 20° C. until the experiment.
Oocytes were plated in 96-well plates for microinjection using the Roboinject automated instrument (MultiChannelSystems, Reutlingen, Germany). Approximately 50 nL of an aqueous solution containing the RNA transcripts for the subunits of the desired GABAA receptor subtype was injected into each oocyte. […] Oocytes were kept in modified Barth's medium (composition in mM: NaCl 88, KCl 1, NaHCO3 […], HEPES 10, MgSO4 0.82, CaNO3 0.33, CaCl2 0.33, pH=7.5) at 20° C. until the experiment.
Electrophysiological experiments were performed using the Roboocyte instrument (MultiChannelSystems, Reutlingen, Germany) on days 3 to 5 after the micro-injection of mRNA. During the experiment the oocytes were constantly superfused by a solution containing (in mM) NaCl 90, KCl 1, HEPES 5, MgCl2 1, CaCl2 1 (pH 7.4). Oocytes were impaled by two glass microelectrodes (resistance: 0.5-0.8 MΩ) which were filled with a solution containing KCl 1M+K-acetate 1.5 M and voltage-clamped to −80 mV. The recordings were performed at room temperature using the Roboocyte two-electrode voltage clamp system (Multichannelsystem). After an initial equilibration period of 1.5 min GABA was added for 1.5 min at a concentration evoking approximately 20% of a maximal current response (EC20). After another rest interval of 2.5 min GABA was again added evoking a response of similar amplitude and shape. […] Current traces were recorded at a digitization rate of 10 Hz during and shortly before and after the GABA application.
Each compound and concentration was tested on at least 3 oocytes. Different oocytes were used for different compound concentrations.
For the analysis, the digitized current traces of the first and second GABA response were superimposed and, if necessary, rescaled to equal maximal amplitudes. The ratio between the two responses during the time interval of test compound application was calculated point by point. The extremum of the resulting “ratio trace” was taken as the efficacy (“Fold increase”) of the compound expressed as “% modulation of GABA EC20” (100*(Fold increase-1)).

[2] = biological target: human GABAA α5β2γ1 receptor (Homo sapiens (Human), UniProt P31644+Q8N1C3); assay: Radioligand binding assay for γ1-containing GABAA subtypes, [3H]RO7239181 competition (α5β2γ1)
Experimental: (§1) The affinity of compounds at GABAA γ1 subunit-containing receptors was measured by competition for [^3H]RO7239181 (67.3 Ci/mmol; Roche) binding to membranes from HEK293F cells (ThermoFisher R79007) expressing human (transiently transfected) receptors of composition α5β2γ1, α2β2γ1, α1β2γ1.
(§2) Harvested pellets from HEK293F cells expressing the different GABAA receptor subtypes were resuspended in Mannitol Buffer pH 7.2-7.4 (Mannitol 0.29 M, Triethylamine 10 mM, Acetic acid 10 mM, EDTA 1 mM plus protease inhibitors (20 tablets Complete, Roche Diagnostics Cat. No. 05 056 489 001 per liter)), washed two times and then resuspended at 1:10 to 1:15 dilution in the same buffer. Cell disruption was performed by stirring the suspension in a Parr vessel #4637 at 435 psi for 15 minutes, and then the suspensions were centrifuged at 1000×g for 15 minutes at 4° C. (Beckman Avanti J-HC; rotor JS-4.2). The supernatant (S1) was transferred in a 2 l Schott flask and the pellet (P1) was resuspended with Mannitol Buffer up to 175 ml. The resuspended pellet was transferred into a 250 ml Corning centrifugal beaker and centrifuged at 1500×g for 10 minutes at 4° C. (Beckman Avanti J-HC; rotor JS-4.2). The supernatant (S1) was then transferred in the 2 l Schott flask and the pellet was discarded. The supernatants (S1) were centrifuged in 500 ml Beckman polypropylene centrifugal beaker at 15′000×g for 30 minutes at 4° C. (Beckman Avanti J-20 XP; rotor JLA-10.500). The pellet (P2) was resuspended with Mannitol Buffer 1:1 and frozen at −80° C. The supernatant (S2) was centrifuged in 100 ml Beckman polypropylene centrifugal tubes at 48000×g for 50 minutes at 4° C. (Beckman Avanti J-20 XP; rotor JA-18). The supernatant (S3) was discarded and the pellet (P3) was resuspended with 1:1 Mannitol Buffer. The P2 and P3 protein concentration was determined with the BIORAD Standard assay method with bovine serum albumin as standard and measured on the NANO-Drop 1000. The membrane suspension was aliquots (500 μl per tube) and stored at −80° C. until required.
(§3) Membrane homogenates were resuspended and polytronised (Polytron PT1200E Kinematica AG) in Potassium Phosphate 10 mM, KCl 100 mM binding buffer at pH 7.4 to a final assay concentration determined with a previous experiment.
(§4) Assays were incubated to equilibrium for 1 hour at 4° C. and then, membranes were filtered onto unifilter (96-well white microplate with bonded GF/C filters preincubated 20-50 minutes in 0.3% Polyethylenimine) with a Filtermate 196 harvester (Packard BioScience) and washed 4 times with cold Potassium Phosphate 10 mM pH 7.4, KCl 100 mM binding buffer. After anhydrousing, filter-retained radioactivity was detected by liquid scintillation counting. Ki values were calculated using Excel-Fit (Microsoft) and are the means of two determinations.

[3] = biological target: human GABAA α2β2γ1 receptor (Homo sapiens (Human), UniProt P47869+Q8N1C3); assay: Radioligand binding assay for γ1-containing GABAA subtypes, [3H]RO7239181 competition (α2β2γ1)
Experimental: as §1, §2, §3, §4

[4] = biological target: human GABAA α1β3γ2 receptor (Homo sapiens (Human), UniProt P14867+P18507); assay: Radioligand binding assay for γ2-containing GABAA subtypes, [3H]Flumazenil competition (α1β3γ2); conditions: for γ2/γ1 Selectivity Ratio: Ki α1β3γ2 (nM)/Ki α2β2γ1 (nM); for LogSel: Log[Ki α1β3γ2 (nM)/Ki α2β2γ1 (nM)]
Experimental: The affinity of compounds at GABAA γ2 subunit-containing receptors was measured by competition for [^3H]Flumazenil (81.1 Ci/mmol; Roche) binding to HEK293F cells expressing human (transiently transfected) receptors of composition α1β3γ2.
Harvested pellets from HEK293F cells expressing the different GABAA γ2 receptor subtypes were resuspended in Mannitol Buffer pH 7.2-7.4 and processed as described above for the cells expressing the GABAA γ1 subunit-containing receptors.
Assays were incubated to equilibrium for 1 hour at 4° C. and harvested onto GF/C uni-filters (Packard) by filtration using a Packard harvester and washing with ice-cold wash buffer (50 mM Tris; pH 7.5). After anhydrousing, filter-retained radioactivity was detected by liquid scintillation counting. Ki values were calculated using Excel-Fit (Microsoft) and are the means of two determinations.

[5] = Ki h-GABAA α2β2γ1, [3H]RO7239181 competition binding, human GABAA α2β2γ1
[6] = Ki h-GABAA α2β2γ1, displacement of [3H]RO7239181, membranes of HEK293F cells expressing human receptors, means of two determinations

In the case of `C[C@@H]1N=C(c2c(F)cccc2F)c2c(ccc(Cl)c2Cl)-n2nc(C(=O)N3CC(C(F)F)C3)nc21` [Example 75, [3-(difluoromethyl)azetidin-1-yl]-[(4S)-7,8-dichloro-6-(2,6-difluorophenyl)-4-methyl-4H-[1,2,4]triazolo[1,5-a][1,4]benzodiazepin-2-yl]methanone], the “Efficacy (GABA)%” value [1] is reported as 41%, the “Fold increase h-GABA-A α2β2γ1 oocyte @ 30-fold Ki” value [1] is reported as 1.41 and the Ki [2] is reported as 1.14 nM. For the same compound, the Ki [3, 5] was 13.8 nM, the Ki [3, 6] was 13.8 nM and the Ki [4] was 737 nM. The “γ2/γ1 Selectivity Ratio” value [4] was 53.4 and the LogSel [4] was 1.73.
`Cc1cn2c(n1)[C@H](C)N=C(c1ncccc1F)c1c-2ccc(C(F)(F)F)c1Cl` [Example 139, (4S)-7-chloro-6-(3-fluoro-2-pyridyl)-2,4-dimethyl-8-(trifluoromethyl)-4H-imidazo[1,2-a][1,4]benzodiazepine] was tested, and the “Efficacy (GABA)%” value [1] was 149%, the “Fold increase h-GABA-A α2β2γ1 oocyte @ 30-fold Ki” value [1] was 2.49 and the Ki [2] was 5.54 nM. The Ki [3, 5] was 30.8 nM, the Ki [3, 6] was 30.8 nM and the Ki [4] was 3060 nM. The “γ2/γ1 Selectivity Ratio” value [4] was 99.6 and the LogSel [4] was 2.00.
In the case of `C[C@@H]1N=C(c2c(F)cccc2F)c2c(ccc(C(F)(F)F)c2Cl)-n2nc(NC(=O)NC3COC3)nc21` [Example 125, 1-[(4S)-7-chloro-6-(2,6-difluorophenyl)-4-methyl-8-(trifluoromethyl)-4H-[1,2,4]triazolo[1,5-a][1,4]benzodiazepin-2-yl]-3-(oxetan-3-yl)urea], the “Efficacy (GABA)%” value [1] is reported as 73%, the “Fold increase h-GABA-A α2β2γ1 oocyte @ 30-fold Ki” value [1] is reported as 1.73 and the Ki [2] is reported as 1.7 nM. The Ki [3, 5] was 6.2 nM, the Ki [3, 6] was 6.19 nM and the Ki [4] was 1600 nM. The “γ2/γ1 Selectivity Ratio” value [4] was 259.0 and the LogSel [4] was 2.41.
In the case of `C[C@@H]1N=C(c2c(F)cccc2F)c2c(ccc(Cl)c2Cl)-n2nc(C(=O)N3CC(CF)C3)nc21` [Example 72, [3-(fluoromethyl)azetidin-1-yl]-[(4S)-7,8-dichloro-6-(2,6-difluorophenyl)-4-methyl-4H-[1,2,4]triazolo[1,5-a][1,4]benzodiazepin-2-yl]methanone], the “Efficacy (GABA)%” value [1] is reported as 44%, the “Fold increase h-GABA-A α2β2γ1 oocyte @ 30-fold Ki” value [1] is reported as 1.44 and the Ki [2] is reported as 1.1 nM. For the same compound, the Ki [3, 5] was 7.2 nM, the Ki [3, 6] was 7.2 nM and the Ki [4] was 727 nM. The “γ2/γ1 Selectivity Ratio” value [4] was 100.6 and the LogSel [4] was 2.00.
For `C[C@@H]1N=C(c2ncccc2F)c2c(ccc(C(F)(F)F)c2Cl)-n2nc(NC(=O)NC3CC3)nc21` [Example 143, 1-[(4S)-7-chloro-6-(3-fluoro-2-pyridyl)-4-methyl-8-(trifluoromethyl)-4H-[1,2,4]triazolo[1,5-a][1,4]benzodiazepin-2-yl]-3-cyclopropyl-urea], the “Efficacy (GABA)%” value [1] was 110%, the “Fold increase h-GABA-A α2β2γ1 oocyte @ 30-fold Ki” value [1] was 2.10 and the Ki [2] was 7.35 nM. The Ki [3, 5] was 45.4 nM, the Ki [3, 6] was 45.4 nM and the Ki [4] was 13500 nM. For the same compound, the “γ2/γ1 Selectivity Ratio” value [4] was 296.6 and the LogSel [4] was 2.47.
In the case of `Cc1nc2n(n1)-c1ccc(Cl)c(Cl)c1C(c1ncccc1F)=N[C@H]2C` [Example 84, (4S)-7,8-dichloro-6-(3-fluoro-2-pyridyl)-2,4-dimethyl-4H-[1,2,4]triazolo[1,5-a][1,4]benzodiazepine], the “Efficacy (GABA)%” value [1] is reported as 175%, the “Fold increase h-GABA-A α2β2γ1 oocyte @ 30-fold Ki” value [1] is reported as 2.75 and the Ki [2] is reported as 2.8 nM. The Ki [3, 5] was 28.4 nM, the Ki [3, 6] was 28.4 nM and the Ki [4] was 977 nM. For the same compound, the “γ2/γ1 Selectivity Ratio” value [4] was 34.4 and the LogSel [4] was 1.54.
`C[C@@H]1N=C(c2c(F)cccc2F)c2c(ccc(C(F)(F)F)c2Cl)-n2nc(NC(=O)N3CC(F)C3)nc21` [Example 128, N-[(4S)-7-chloro-6-(2,6-difluorophenyl)-4-methyl-8-(trifluoromethyl)-4H-[1,2,4]triazolo[1,5-a][1,4]benzodiazepin-2-yl]-3-fluoro-azetidine-1-carboxamide] was tested, and the “Efficacy (GABA)%” value [1] was 98%, the “Fold increase h-GABA-A α2β2γ1 oocyte @ 30-fold Ki” value [1] was 1.98 and the Ki [2] was 4.2 nM. The Ki [3, 5] was 34.8 nM, the Ki [3, 6] was 34.9 nM and the Ki [4] was 3880 nM. The “γ2/γ1 Selectivity Ratio” value [4] was 111.4 and the LogSel [4] was 2.05.
In the case of `C[C@@H]1N=C(c2ncccc2F)c2c(ccc(C(F)(F)F)c2Cl)-n2nc(N3CCOC3=O)nc21` [Example 147, 3-[(4S)-7-chloro-6-(3-fluoro-2-pyridyl)-4-methyl-8-(trifluoromethyl)-4H-[1,2,4]triazolo[1,5-a][1,4]benzodiazepin-2-yl]oxazolidin-2-one], the “Efficacy (GABA)%” value [1] is reported as 113%, the “Fold increase h-GABA-A α2β2γ1 oocyte @ 30-fold Ki” value [1] is reported as 2.13 and the Ki [2] is reported as 7.44 nM. The Ki [3, 5] was 49.3 nM, the Ki [3, 6] was 49.4 nM and the Ki [4] was 12600 nM. The “γ2/γ1 Selectivity Ratio” value [4] was 255.4 and the LogSel [4] was 2.41.
`C[C@@H]1N=C(c2c(F)cccc2F)c2c(ccc(Cl)c2Cl)-n2nc(S(C)(=O)=O)nc21` [Example 82, (4S)-7,8-dichloro-6-(2,6-difluorophenyl)-4-methyl-2-methylsulfonyl-4H-[1,2,4]triazolo[1,5-a][1,4]benzodiazepine] was tested, and the “Efficacy (GABA)%” value [1] was 75%, the “Fold increase h-GABA-A α2β2γ1 oocyte @ 30-fold Ki” value [1] was 1.75 and the Ki [2] was 3.55 nM. The Ki [3, 5] was 19.8 nM, the Ki [3, 6] was 19.8 nM and the Ki [4] was 2130 nM. For the same compound, the “γ2/γ1 Selectivity Ratio” value [4] was 107.3 and the LogSel [4] was 2.03.
